Results reported in US20230346952A1, “CANNABINOID GLYCOSIDE PRODRUGS AND METHODS OF SYNTHESIS” (priority 2015, published 2023).

Tests used:
[1] = Rat plasma toxicokinetics post VB302 administration at 1,000 mg/kg; details: both, Sprague Dawley, po, 1000 mg/kg, AUC in plasma, post VB302 oral gavage 1,000 mg/kg, 1, 2, 6, 24 hours, label = analyte in plasma
[2] = Antimicrobial activity observed in phytocannabinoid glycosylation reaction mixtures; details: large-scale glycosylation reaction mixtures
[3] = target: safety screen panel of human pharmacological targets (Homo sapiens, UniProt P21554); assay: biochemical; details: read-out: percent inhibition: CB1 (h) (agonist radioligand)
Chain of safety screen panel of human pharmacological targets (P21554 whole entry): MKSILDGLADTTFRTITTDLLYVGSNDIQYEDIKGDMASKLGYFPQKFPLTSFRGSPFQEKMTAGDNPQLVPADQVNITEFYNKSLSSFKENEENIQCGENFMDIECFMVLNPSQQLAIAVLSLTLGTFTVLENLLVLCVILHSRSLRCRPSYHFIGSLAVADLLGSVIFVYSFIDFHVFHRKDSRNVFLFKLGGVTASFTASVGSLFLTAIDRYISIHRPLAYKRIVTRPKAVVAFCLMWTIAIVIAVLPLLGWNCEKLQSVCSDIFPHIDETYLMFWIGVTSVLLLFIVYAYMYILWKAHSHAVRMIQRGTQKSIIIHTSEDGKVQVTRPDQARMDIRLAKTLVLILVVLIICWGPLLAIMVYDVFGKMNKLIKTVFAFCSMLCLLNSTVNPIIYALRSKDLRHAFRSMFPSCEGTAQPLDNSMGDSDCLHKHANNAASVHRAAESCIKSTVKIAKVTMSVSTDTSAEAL

[4] = target: T1, human cannabinoid receptor type 1 (CB1R) (Homo sapiens, UniProt P21554); type: binding; details: 10 µM test compound; 2.0 nanomolar [3H] SR141716A; human recombinant Chem-1 cells; 90 minutes at 37 C
T1 construct: expressed in transfected cells; host or cells: Chem-1 cells
T1 sequence (P21554 whole entry): as above

[5] = system: Lallzyme Beta™ (Lallemand); assay: In vitro digestion with Lallzyme Beta; details: 5 mg/ml Lallzyme Beta, 20 mM citrate buffer pH 4.0, 44° C.; HPLC
glycoside hydrolases = assay: In vitro digestion screening with commercially available glycoside hydrolases (Table K); details: Enzyme 1 of Table K
[6] = system: Vinotaste Pro (Novozymes); assay: In vitro digestion with Vinotaste Pro; details: same digestion conditions as for Lallzyme Beta; HPLC

Structure (SMILES)	AUC [1] [ng·h/mL]	antimicrobial activity [2]	inhibition at 10 µM [3] [%]	percent displacement of [3H] SR141716A at human CB1R [4] [%]	digestion by Lallzyme Beta (extent / products) [5]	digestion by glycoside hydrolase (activity / product) (glycoside hydrolases)	digestion by Vinotaste Pro (extent / products) [6]
CCCCCc1cc(O)c2c(c1)OC(C)(C)[C@@H]1CCC(C)=C[C@@H]21 [VB301, Δ9-Terahydrocannabinol, reference compound]	72	noticeable antimicrobial activity					
CCCCCc1cc(O[C@@H]2O[C@H](CO)[C@@H](O)[C@H](O)[C@H]2O)c2c(c1)OC(C)(C)[C@@H]1CCC(C)=C[C@@H]21 [VB302, Δ9THC-1-O-glucopyranoside]	167000		-3	-3	unable to hydrolyze VB302 back to THC		
CCCCCc1cc(O[C@@H]2O[C@H](CO[C@@H]3O[C@H](CO)[C@@H](O)[C@H](O)[C@H]3O)[C@@H](O[C@@H]3O[C@H](CO)[C@@H](O)[C@H](O)[C@H]3O)[C@H](O)[C@H]2O)c2c(c1)OC(C)(C)[C@@H]1CCC(C)=C[C@@H]21 [VB311]			3	3	very low activity	digests VB311 to V310	capable of hydrolyzing
